From US8288410B2, “3-substituted quinolinium and 7H-indolo[2,3-c]quinolinium salts as new antiinfectives” (Florida Agricultural and Mechanical University, priority 2008, dated 2012)
Converted amounts (≈) assume the structure as drawn. Like-named read-outs stand apart in the source and are kept apart here.

Key:
[1] = system: Cryptococcus neoformans ATCC 90113; assay: Antifungal susceptibility testing, Cryptococcus neoformans; assay type: cell-based
Outline: (§1)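 Modified NCCLS broth microdilution, samples serially diluted from 20 μg/mL top concentration, inocula per 0.5 McFarland (C. albicans in SDB or RPMI 1640; C. neoformans in SDB; A. fumigatus in YM broth or RPMI-1640 + 5% Alamar Blue). IC50 from percent growth versus concentration; MIC read visually as lowest concentration without detectable growth.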

Vero Cells = assay: Cytotoxicity, Vero cells; assay type: cell-based
[2] = system: Candida albicans ATTC 90028; assay: Antifungal susceptibility testing, Candida albicans; assay type: cell-based
Outline: as §1

[3] = system: Aspergillus fumigatus ATCC 90906; assay: Antifungal susceptibility testing, Aspergillus fumigatus; assay type: cell-based
Outline: as §1

MRSA = assay: Antibacterial susceptibility testing, MRSA; assay type: cell-based, methicillin resistant Staphylococcus aureus; details: for MRS IC50 / MRS MFC / MRS MIC: Table 1
Outline: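 MRSA, sourced from the American Type Culture Collection, was tested for susceptibility with a modified National Committee for Clinical Laboratory Standards method. DMSO sample solutions were serially diluted in saline and placed in duplicate in 96 well microplates. Broth-diluted bacterial suspensions, standardized to 0.5 McFarland, brought each well to 200 μL, with the highest test concentration at 20 μg/mL.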

SMILES | Cn IC50 ([1]; Table 1) | Cn MFC ([1]; Table 1) | Cn MIC ([1]; Table 1) | Ca IC50 ([2]; Table 1) | Ca MFC ([2]; Table 1) | Ca MIC ([2]; Table 1) | A fu IC50 ([3]; Table 1, Aspergillus fumigatus) | A fu MFC ([3]; Table 1, Aspergillus fumigatus) | A fu MIC ([3]; Table 1, Aspergillus fumigatus) | MRS IC50 (MRSA) [mg/L] | MRS MFC (MRSA) | MRS MIC (MRSA) [mg/L] | further results
C[C@@H]1[C@H](O)[C@@H](C)/C=C/C=C/C=C/C=C/C=C/C=C/C=C/[C@H](O[C@@H]2O[C@H](C)[C@@H](O)[C@H](N)[C@@H]2O)C[C@@H]2O[C@](O)(C[C@@H](O)C[C@@H](O)[C@H](O)CC[C@@H](O)C[C@@H](O)CC(=O)O[C@H]1C)C[C@H](O)[C@H]2C(=O)O [Amph B, Amphotericin B, reference compound] | 0.85 mg/L | 2.5 mg/L | 2.5 mg/L | 0.25 mg/L | 1.3 mg/L | 0.63 mg/L | 0.90 mg/L | – | – | – | – | – | Cn IC50 ([1]; Table 2): 0.85 mg/L; Cn MFC ([1]; Table 2): 2.5 mg/L; Cn MIC ([1]; Table 2): 2.5 mg/L; Cn IC50 ([1]; Table 3): 0.85 mg/L; Cn MFC ([1]; Table 3): 2.5 mg/L; Cn MIC ([1]; Table 3): 2.5 mg/L; TC50 Vero Cells (Vero Cells; Table 1): 6.5 mg/L (≈ 7.03 µM); TC50 Vero Cells (Vero Cells; Table 2): 6.5 mg/L (≈ 7.03 µM); TC50 Vero Cells (Vero Cells; Table 3): 6.5 mg/L (≈ 7.03 µM); Ca IC50 ([2]; Table 2): 0.25 mg/L; Ca MFC ([2]; Table 2): 1.3 mg/L; Ca MIC ([2]; Table 2): 0.63 mg/L; Ca IC50 ([2]; Table 3): 0.25 mg/L; Ca MFC ([2]; Table 3): 1.3 mg/L; Ca MIC ([2]; Table 3): 0.63 mg/L; A fu MFC [3]: 2.5 mg/L; A fu MIC [3]: 2.5 mg/L; A fu IC50 ([3]; Table 2, Aspergillus fumigatus): 0.90 mg/L; A fu IC50 ([3]; Table 3, Aspergillus fumigatus): 0.90 mg/L
O=C(O)c1cn(C2CC2)c2cc(N3CCNCC3)c(F)cc2c1=O [Cipro, Ciprofloxacin, reference compound] | – | – | – | – | – | – | – | – | – | – | – | – | TC50 Vero Cells (Vero Cells; Table 3): >10 mg/L; IC50 (MRSA; Staphylococcus aureus, Table 3, read-out: MRSA IC50): 0.09 mg/L (≈ 0.272 µM); MFC (MRSA; Staphylococcus aureus, Table 3, read-out: MRSA MFC): > 20 mg/L; MIC (MRSA; Staphylococcus aureus, Table 3, read-out: MRSA MIC): 0.5 mg/L (≈ 1.51 µM)
C[n+]1cc(N(CCCCCC2CCCCC2)c2ccsc2)cc2ccccc21 [EVK-II-091] | – | – | – | – | – | – | – | – | – | – | – | – | IC50 ([1]; ATCC90113, Table 2, read-out: Cn IC50): 0.45 mg/L; MFC ([1]; ATCC90113, Table 2, read-out: Cn MFC): 5 mg/L; MIC ([1]; ATCC90113, Table 2, read-out: Cn MIC): 0.63 mg/L; TC50 Vero Cells (Vero Cells; Table 2): >10 mg/L; IC50 ([2]; ATTC90028, Table 2, read-out: Ca IC50): 0.8 mg/L; MFC ([2]; ATTC90028, Table 2, read-out: Ca MFC): > 20 mg/L; MIC ([2]; ATTC90028, Table 2, read-out: Ca MIC): 1.3 mg/L; A fu MFC [3]: 5.0 mg/L; A fu MIC [3]: 1.3 mg/L; IC50 ([3]; ATCC90906, Table 2, Aspergillus fumigatus, read-out: A fu IC50): 0.5 mg/L; IC50 (MRSA; Staphylococcus aureus, Table 2, read-out: MRSA IC50): 0.45 mg/L; MIC (MRSA; Staphylococcus aureus, Table 2, read-out: MRSA MIC): 0.63 mg/L
FC(F)(F)c1ccc(Sc2cc3ccccc3[n+](CCCCCc3ccccc3)c2)cc1.[I-] [XYZ-III-66] | 2.0 mg/L | 10 mg/L | 5.0 mg/L | 5.5 mg/L | — ((-) = >20 μg/mL) | 10 mg/L | 3.0 mg/L | — ((-) = >20 μg/mL) | 5.0 mg/L | – | – | – | TC50 Vero Cells (Vero Cells; Table 1): NC (NC = Not toxic at 10 μg/mL)
[I-].[O-][S+](c1cc2ccccc2[n+](CCCCCc2ccccc2)c1)c1ccccc1Cl (stereo not drawn) [XYZ-V-9] | 10 mg/L | — ((-) = >20 μg/mL) | 20 mg/L | — ((-) = >20 μg/mL) | — ((-) = >20 μg/mL) | — ((-) = >20 μg/mL) | — ((-) = >20 μg/mL) | — ((-) = >20 μg/mL) | — ((-) = >20 μg/mL) | 0.75 | — ((-) = >20 μg/mL) | 2.5 | –
[I-].[O-][S+](c1cc(C(F)(F)F)cc(C(F)(F)F)c1)c1cc2ccccc2[n+](CCCCCc2ccccc2)c1 (stereo not drawn) [XYZ-V-13] | 3.0 mg/L | 20 mg/L | 5.0 mg/L | 10 mg/L | 20 mg/L | 20 mg/L | — ((-) = >20 μg/mL) | — ((-) = >20 μg/mL) | — ((-) = >20 μg/mL) | 0.20 | 10 mg/L | 0.63 | –
[I-].[O-][S+](c1ccc(Br)cc1)c1cc2ccccc2[n+](CCCCCc2ccccc2)c1 (stereo not drawn) [XYZ-V-20] | 7.0 mg/L | — ((-) = >20 μg/mL) | 10 mg/L | — ((-) = >20 μg/mL) | — ((-) = >20 μg/mL) | — ((-) = >20 μg/mL) | — ((-) = >20 μg/mL) | — ((-) = >20 μg/mL) | — ((-) = >20 μg/mL) | 0.50 | — ((-) = >20 μg/mL) | 2.5 | –
COc1ccc([S+]([O-])c2cc3ccccc3[n+](CCCCCc3ccccc3)c2)cc1.[I-] (stereo not drawn) [XYZ-V-21] | — ((-) = >20 μg/mL) | — ((-) = >20 μg/mL) | — ((-) = >20 μg/mL) | — ((-) = >20 μg/mL) | — ((-) = >20 μg/mL) | — ((-) = >20 μg/mL) | — ((-) = >20 μg/mL) | — ((-) = >20 μg/mL) | — ((-) = >20 μg/mL) | 7.00 | — ((-) = >20 μg/mL) | 20 | –
COc1cccc([S+]([O-])c2cc3ccccc3[n+](CCCCCc3ccccc3)c2)c1.[I-] (stereo not drawn) [XYZ-V-23] | – | — ((-) = >20 μg/mL) | — ((-) = >20 μg/mL) | — ((-) = >20 μg/mL) | — ((-) = >20 μg/mL) | — ((-) = >20 μg/mL) | — ((-) = >20 μg/mL) | — ((-) = >20 μg/mL) | — ((-) = >20 μg/mL) | 2.50 | — ((-) = >20 μg/mL) | 10 | –
[I-].[O-][S+](c1ccc(C(F)(F)F)cc1)c1cc2ccccc2[n+](CCCCCc2ccccc2)c1 (stereo not drawn) [XYZ-V-27] | 6.0 mg/L | 20 mg/L | 10 mg/L | — ((-) = >20 μg/mL) | — ((-) = >20 μg/mL) | — ((-) = >20 μg/mL) | — ((-) = >20 μg/mL) | — ((-) = >20 μg/mL) | — ((-) = >20 μg/mL) | 0.50 | — ((-) = >20 μg/mL) | 1.3 | –
[I-].[O-][S+](c1cccc(Br)c1)c1cc2ccccc2[n+](CCCCCc2ccccc2)c1 (stereo not drawn) [XYZ-V-29] | 5.5 mg/L | 20 mg/L | 10 mg/L | — ((-) = >20 μg/mL) | — ((-) = >20 μg/mL) | — ((-) = >20 μg/mL) | — ((-) = >20 μg/mL) | — ((-) = >20 μg/mL) | — ((-) = >20 μg/mL) | 0.90 | — ((-) = >20 μg/mL) | 2.5 | –
O=C(c1ccc(Cl)cc1)c1cc2ccccc2[n+](CCCCCc2ccccc2)c1.[I-] [XYZ-V-62] | 2.0 mg/L | 10 mg/L | 5.0 mg/L | 7.0 mg/L | — ((-) = >20 μg/mL) | 10 mg/L | 10 mg/L | — ((-) = >20 μg/mL) | 20 mg/L | 0.20 | — ((-) = >20 μg/mL) | 3.1 | –
